Source: patent US20190185544A1, “COMPOSITIONS AND METHODS OF MODULATING ABETA PROTEIN” (University of South Florida, priority 2016, published 2019)
“Also recorded” adds a separate entry of the source.

Experiments:
Type in all cases: cell-based, Chinese hamster
CHO/APPwt cells = assay: Aβ production in CHO/APPwt cells, treatment alone (Aβ1-40, 42 ELISA, 82E1 WB); details: for Aβ production (Aβ1-40, 42): serum-free medium, 2 h (ELISA) or 16 h (WB)
Protocol: Chinese hamster ovary (CHO) cells overexpressing human wild-type amyloid precursor protein (APPwt) (CHO/APPwt cells) were cultured in 96-well plate at about 2×10^4/well in Dulbecco's modified Eagle's medium (DMEM) with 10% fetal bovine serum (FBS), 1 mM sodium pyruvate and 100 U/mL of penicillin/streptomycin for 18 hours.
CHO/APPwt cells were cultured in 96-well plate (about 2×10^4/well) in serum-free medium and treated with ApoE LDLR, FlagApoE LDLR (SEQ ID NO.: 1 with an N-terminal FLAG tag), BiotinApo LDLR (SEQ ID NO.: 1 with an N-terminal Biotin) and 3 lysinesApoE LDLR (3KApoE LDLR (SEQ ID NO.: 2)) at indicated doses for about 2 hours.
The conditioned media and cell lysates were prepared, and subjected to Aβ ELISA and protein assay.
CHO cells overexpressing human wild-type APP (CHO/APPwt) cells were cultured in 96-well plate at 2×10^4/well in Dulbecco's modified Eagle's medium (DMEM) with 10% fetal bovine serum (FBS), 1 mM sodium pyruvate and 100 U/mL of penicillin/streptomycin for 18 hours. […] 82E1 WB analyses as shown below the Aβ ELISA result histograms. The Aβ ELISA results are representative of three independent experiments with each condition triplicated and presented as mean±SD.
(residues 133-152, SEQ ID NO: 1)] as indicated for 2 and 16 hours (h). The conditioned media and cell lysates were analyzed by Aβ1-40, 42 ELISA (FIG. 10A), 82E1 WB analysis (FIG. 10B) and protein assay, respectively. In addition, (FIG. 10C) CHO/APPwt cells were cultured in 96-well plate (2×10^4/well) in serum-free DMEM and treated with FlagApoE-LBDP, BiotinApoE-LBDP and 3 lysineApoE-LBDP (3KApoE-LBDP) in comparing to ApoE-LBDP at indicated doses for 2 hours (h). […] (SEQ ID NO: 2); […]-[…] (SEQ ID NO: 10); Biotin-[…] (SEQ ID NO: 1 with an N-Terminal Biotin).
CHO cells engineered to express human wild-type APP (CHO/APPwt) or Swedish mutant APP (CHO/APPswe) were obtained. These cells were cultured in 96 or 24 well plates at 4×10^4 or 2×10^5 cells/well, respectively, in Dulbecco's modified Eagle's medium (DMEM) with 10% fetal bovine serum, 1 mM sodium pyruvate and 100 U/mL of penicillin/streptomycin (Invitrogen, Thermo Fisher Scientific). In addition, murine N2a cells transfected with APPwt (N2a/APPwt were obtained), SH-SY5Y cells transfected with APPswe and wild-type SH-SY5Y cells (ATCC, Manassas, Va.) were cultured as previously described^42. Primary hN2TM human neurons (Neuromics, Edina, Minn.) were cultured in hN2TM human neuron culture media and primary HCN2 human neurons (ATCC) were cultured in DMEM with 4 mM L-glutamine adjusted to contain 1.5 g/L sodium bicarbonate, 4.5 g/L glucose, fetal bovine serum (10%).
Aβ1-40, 42 and sAPPα from cell and brain homogenates were detected by Aβ1-40, 42 and sAPPα ELISA kits (IBL-America), strictly following the manufacturer's instructions^43,44.
WB analyses were performed as previously described^43,44. Briefly, 10% bicine/tris gel containing 8 M urea was used for separation of Aβ1-40, 42 species from brain homogenates or CHO cell conditioned media or lysates, followed by transfer to 0.2 μm pore-size nitrocellulose membrane (Bio-Rad, Hercules, Calif.). The membrane was boiled in PBS for 3 to 5 min before blocking to enhance sensitivity and then incubated with 82E1. For all other proteins detected by WB, 10% tris-SDS gels were used. Densitometry analysis was performed as previously described using a FluorS Multiimager with Quantity One™ software 43.

p38 MAPK = p38 MAPK phosphorylation in CHO/APPwt cell lysates (WB); details: peptides 10 μM or apoE 10 μg/mL, 0 to 180 min
p44/42 MAPK = p44/42 MAPK phosphorylation in CHO/APPwt cell lysates (WB); details: peptides 10 μM or apoE 10 μg/mL, 0 to 180 min
CHO/APPdE1 cells = assay: Aβ production in CHO cells expressing APP695 lacking the N-terminal E1 region; details: peptides 10 μM or apoE 10 μg/mL, 4 h; compared with CHO/APPwt
Description: CHO cells were also transfected with pCMV6 APP695 or pCMV6 E1 depleted APP695, yielding cells expressing wild type APP695 (CHO/APPwt) or truncated APP695 lacking the N-terminal E1 region (CHO/APPdE1). […] Diagram indicates important domains identified in APP, including N-terminal E1 region (top panel), and APPwt and APPdE1 proteins in cell lysates and conditioned media derived from the transfected CHO cells as determined by WB using 6E10 (middle panels). […] ELISA results are representative of three independent experiments with each condition triplicated and presented as mean±s.d. of Aβs (μg/mg of total intracellular protein). Asterisk indicates P<0.05 compared with the corresponding absence of 22C11, 6H3B5 or 6KApoEp, or with corresponding CHO/APPwt cells, as determined by one-way ANOVA.
Therefore, apoE and ApoEp mediates and 6KApoEp reduces Aβ production by binding to the N-terminal E1 region of APP, but this region of APP is not required for spontaneous Aβ release in the absence of apoE.

| Substance | sAPPα secretion (CHO/APPwt cells) | Aβ production (Aβ1-40, 42) (CHO/APPwt cells) | p38 MAPK phosphorylation (p38 MAPK) | p44/42 MAPK phosphorylation (p44/42 MAPK) | Aβ production in CHO/APPdE1 cells (CHO/APPdE1 cells) |
| --- | --- | --- | --- | --- | --- |
| ApoE3: human recombinant apolipoprotein E3 protein (BioVision) | decreased sAPPα secretion | markedly promote amyloid β protein (Aβ) production | activated both p44/42 and p38 MAPK phosphorylation | activated both p44/42 and p38 MAPK phosphorylation | markedly less Aβ production compared with CHO/APPwt cells |
| ApoE4: human recombinant apolipoprotein E4 protein (BioVision) | decreased sAPPα secretion | increased Aβ1-40, 42 production; also recorded: markedly promote amyloid β protein (Aβ) production | activated both p44/42 and p38 MAPK phosphorylation | activated both p44/42 and p38 MAPK phosphorylation | markedly less Aβ production compared with CHO/APPwt cells |
